{"source": "PubChem BioAssay (NCI)", "experiment_in_all_cases": "DTP human tumour cell line panel, 384-well format", "key": {"UO-31 renal": {"tested_on": "UO-31 renal"}, "MALME-3M melanoma": {"tested_on": "MALME-3M melanoma"}, "HOP-92 NSCLC": {"tested_on": "HOP-92 NSCLC"}, "SR leukemia": {"tested_on": "SR leukemia"}, "OVCAR-4 ovarian": {"tested_on": "OVCAR-4 ovarian"}, "HT29 colon": {"tested_on": "HT29 colon"}, "MOLT-4 leukemia": {"tested_on": "MOLT-4 leukemia"}, "OVCAR-8 ovarian": {"tested_on": "OVCAR-8 ovarian"}, "TK-10 renal": {"tested_on": "TK-10 renal"}, "T-47D breast": {"tested_on": "T-47D breast"}, "OVCAR-3 ovarian": {"tested_on": "OVCAR-3 ovarian"}, "SF-295 CNS": {"tested_on": "SF-295 CNS"}, "SW-620 colon": {"tested_on": "SW-620 colon"}, "OVCAR-5 ovarian": {"tested_on": "OVCAR-5 ovarian"}, "HCT-116 colon": {"tested_on": "HCT-116 colon"}, "A498 renal": {"tested_on": "A498 renal"}, "SN12C renal": {"tested_on": "SN12C renal"}, "NCI-H226 lung": {"tested_on": "NCI-H226 lung"}, "M14 melanoma": {"tested_on": "M14 melanoma"}, "HOP-62 NSCLC": {"tested_on": "HOP-62 NSCLC"}, "RXF 393 renal": {"tested_on": "RXF 393 renal"}, "IGROV1 ovarian": {"tested_on": "IGROV1 ovarian"}, "SF-268 CNS": {"tested_on": "SF-268 CNS"}, "EKVX NSCLC": {"tested_on": "EKVX NSCLC"}, "SF-539 CNS": {"tested_on": "SF-539 CNS"}, "A549 NSCLC": {"tested_on": "A549 NSCLC"}, "CAKI-1 renal": {"tested_on": "CAKI-1 renal"}, "ACHN renal": {"tested_on": "ACHN renal"}}, "note": "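GI50 = concentration required for 50% inhibition of growth. TGI: concentration producing complete growth inhibition.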", "data": [{"smiles": "C=CC(=O)N1CCN([C@@H](CC2CC2)c2ccc([C@H](C)Nc3ncc4c(n3)N(CC)C(=O)OC4)cc2)CC1", "values": [{"measurement": "TGI", "setting": "UO-31 renal", "result": 26.9, "unit": "µM"}, {"measurement": "GI50", "setting": "MALME-3M melanoma", "result": 19, "unit": "µM"}, {"measurement": "TGI", "setting": "MALME-3M melanoma", "result": 33.1, "unit": "µM"}, {"measurement": "GI50", "setting": "HOP-92 NSCLC", "result": 8.05, "unit": "µM"}, {"measurement": "TGI", "setting": "HOP-92 NSCLC", "result": 20.7, "unit": "µM"}, {"measurement": "GI50", "setting": "SR leukemia", "result": 2.94, "unit": "µM"}, {"measurement": "TGI", "setting": "SR leukemia", "result": 8.8, "unit": "µM"}, {"measurement": "GI50", "setting": "OVCAR-4 ovarian", "result": 13.3, "unit": "µM"}, {"measurement": "TGI", "setting": "OVCAR-4 ovarian", "result": 26.1, "unit": "µM"}, {"measurement": "GI50", "setting": "HT29 colon", "result": 14.8, "unit": "µM"}, {"measurement": "TGI", "setting": "HT29 colon", "result": 28, "unit": "µM"}, {"measurement": "GI50", "setting": "MOLT-4 leukemia", "result": 1.89, "unit": "µM"}, {"measurement": "TGI", "setting": "MOLT-4 leukemia", "result": 3.43, "unit": "µM"}, {"measurement": "GI50", "setting": "OVCAR-8 ovarian", "result": 12.7, "unit": "µM"}, {"measurement": "TGI", "setting": "OVCAR-8 ovarian", "result": 26.1, "unit": "µM"}, {"measurement": "GI50", "setting": "TK-10 renal", "result": 4.36, "unit": "µM"}, {"measurement": "TGI", "setting": "TK-10 renal", "result": 16.6, "unit": "µM"}, {"measurement": "GI50", "setting": "T-47D breast", "result": 13.9, "unit": "µM"}, {"measurement": "TGI", "setting": "T-47D breast", "result": 28, "unit": "µM"}, {"measurement": "GI50", "setting": "OVCAR-3 ovarian", "result": 10.2, "unit": "µM"}, {"measurement": "TGI", "setting": "OVCAR-3 ovarian", "result": 21.8, "unit": "µM"}, {"measurement": "GI50", "setting": "SF-295 CNS", "result": 35.3, "unit": "µM"}, {"measurement": "TGI", "setting": "SF-295 CNS", "result": "> 100", "unit": "µM"}, {"measurement": "GI50", "setting": "SW-620 colon", "result": 13.5, "unit": "µM"}, {"measurement": "TGI", "setting": "SW-620 colon", "result": 26.4, "unit": "µM"}, {"measurement": "GI50", "setting": "OVCAR-5 ovarian", "result": 16.1, "unit": "µM"}, {"measurement": "TGI", "setting": "OVCAR-5 ovarian", "result": 30.4, "unit": "µM"}, {"measurement": "GI50", "setting": "HCT-116 colon", "result": 6.57, "unit": "µM"}, {"measurement": "TGI", "setting": "HCT-116 colon", "result": 19.7, "unit": "µM"}, {"measurement": "GI50", "setting": "A498 renal", "result": 12, "unit": "µM"}, {"measurement": "TGI", "setting": "A498 renal", "result": 24.4, "unit": "µM"}, {"measurement": "GI50", "setting": "SN12C renal", "result": 16.2, "unit": "µM"}, {"measurement": "TGI", "setting": "SN12C renal", "result": 29.8, "unit": "µM"}, {"measurement": "GI50", "setting": "NCI-H226 lung", "result": 15.9, "unit": "µM"}, {"measurement": "TGI", "setting": "NCI-H226 lung", "result": 36.1, "unit": "µM"}, {"measurement": "GI50", "setting": "M14 melanoma", "result": 14.3, "unit": "µM"}, {"measurement": "TGI", "setting": "M14 melanoma", "result": 27.3, "unit": "µM"}, {"measurement": "GI50", "setting": "HOP-62 NSCLC", "result": 10, "unit": "µM"}, {"measurement": "TGI", "setting": "HOP-62 NSCLC", "result": 27.9, "unit": "µM"}, {"measurement": "GI50", "setting": "RXF 393 renal", "result": 2.52, "unit": "µM"}, {"measurement": "TGI", "setting": "RXF 393 renal", "result": 12.5, "unit": "µM"}, {"measurement": "GI50", "setting": "IGROV1 ovarian", "result": 10.3, "unit": "µM"}, {"measurement": "TGI", "setting": "IGROV1 ovarian", "result": 22.1, "unit": "µM"}, {"measurement": "GI50", "setting": "SF-268 CNS", "result": 14.4, "unit": "µM"}, {"measurement": "TGI", "setting": "SF-268 CNS", "result": 27.5, "unit": "µM"}, {"measurement": "GI50", "setting": "EKVX NSCLC", "result": 16.4, "unit": "µM"}, {"measurement": "TGI", "setting": "EKVX NSCLC", "result": "> 100", "unit": "µM"}, {"measurement": "GI50", "setting": "SF-539 CNS", "result": 11.4, "unit": "µM"}, {"measurement": "TGI", "setting": "SF-539 CNS", "result": 23.5, "unit": "µM"}, {"measurement": "GI50", "setting": "A549 NSCLC", "result": 25.3, "unit": "µM"}, {"measurement": "TGI", "setting": "A549 NSCLC", "result": "> 100", "unit": "µM"}, {"measurement": "GI50", "setting": "CAKI-1 renal", "result": 11.4, "unit": "µM"}, {"measurement": "TGI", "setting": "CAKI-1 renal", "result": 23.6, "unit": "µM"}, {"measurement": "GI50", "setting": "ACHN renal", "result": 13.9, "unit": "µM"}, {"measurement": "TGI", "setting": "ACHN renal", "result": 26.8, "unit": "µM"}]}]}
